Assay results taken from US6503449B1, “Process for the control of microbial contamination in water-based solids suspensions” (Ciba Specialty Chemicals Corporation, priority 1998, dated 2003).

System: Xanthomonas maltophilia and Pseudomonas mendocina
Assay: Sonication of Pigment Red 53.1 dispersion with biocide, bacterial contamination check
Assay type: cell-based
From the text: A mixture of Pigment Red 23, available from Ciba Specialty Chemicals(UK) Ltd., 215.5 parts, Emulan OG (RTM) (35% solution in water), available from BASF, 153.7 parts, tributyl phosphate, available from Albright & Wilson, 2 parts, and water, 128.8 parts, are dispersed by re-circulation through a Bachofen KDL200 bead-mill until colouristic properties are within specification of UNISPERSE (RTM) Red RBS-PI, available from Ciba Specialty Chemicals(UK) Ltd., and adjusted to pH 8.0-8.5 with 20% sodium hydroxide solution. This material is identified as containing the Gram negative bacterium, Pseudomonas putida. 50 millilitre aliquots of this dispersion containing levels of glutaraldehyde (pentane-1,5-dialdehyde), available as the trade product Protectol GDA form BASF or Ucarcide from Union Carbide, between 0 parts per million (ppm) and 2000 ppm are sonicated using a Branson MSE sonicator with a 19 mm horn probe resonating at 20 kHz with an amplitude of 6 microns. Sonication is undertaken in a 100 millilitre glass beaker, diameter 38 mm, with magnetic flea agitator and cooled in a water/ice bath to maintain temperature at 28-32° C. Bacterial growth in each sample is assessed at 5 minute intervals by streaking each dispersion on to Nutrient Agar(NA) plates and incubating the plates for a minimum of 48 hours at 30° C. The plates are then examined for bacterial colonies and expressed according to the following notation:
A mixture of Pigment Red 53.1, available from S&D Chemicals Ltd., 37 parts, Emulan OG (35% solution), 25.9 parts, 2-ethylhexanoic acid, available from Barratt Chemicals Ltd., 3 parts tributyl phosphate, 0.3 parts, and water 31.74 parts are dispersed by a single pass through a Bachofen KDL Special beadmill containing 1.0 mm Yttrium-stabilised Zirconium Oxide beads. This material is identified as containing the Gram negative bacteria, Xanthomonas maltophilia and Pseudomonas mendocina. 50 millilitre aliquots of this dispersion are treated with pentane-1,5-dialdehyde (Ucarcide 250) and CIT/MIT mixture (Acticide LG) according to the process defined in Example 1 and each sample checked for bacterial contamination according to the following table: […]

For `O=CCCCC=O` [glutaraldehyde, pentane-1,5-dialdehyde], the bacterial contamination (500 ppm Ucarcide 250, 3 days after sonication) was “+++ (heavy contamination(>10^5 cfu/ml))”, the bacterial contamination (500 ppm Ucarcide 250, 7 days after sonication) was “+++ (heavy contamination(>10^5 cfu/ml))” and the bacterial contamination (500 ppm Ucarcide 250, 14 days after sonication) was “+++ (heavy contamination(>10^5 cfu/ml))”. For the same molecule, the bacterial contamination (500 ppm Ucarcide 250, 28 days after sonication) was “+++ (heavy contamination(>10^5 cfu/ml))”, the bacterial contamination (500 ppm Ucarcide 250, 90 days after sonication) was “+++ (heavy contamination(>10^5 cfu/ml))” and the bacterial contamination (500 ppm Ucarcide 250, sonicated 0 mins.) was “+++ (heavy contamination(>10^5 cfu/ml))”. The bacterial contamination (500 ppm Ucarcide 250, sonicated 5 mins.) was “+++ (heavy contamination(>10^5 cfu/ml))”, the bacterial contamination (500 ppm Ucarcide 250, sonicated 10 mins.) was “+++ (heavy contamination(>10^5 cfu/ml))” and the bacterial contamination (500 ppm Ucarcide 250, sonicated 15 mins.) was “+++ (heavy contamination(>10^5 cfu/ml))”. For the same molecule, the bacterial contamination (500 ppm Ucarcide 250, sonicated 20 mins.) was “+++ (heavy contamination(>10^5 cfu/ml))”, the bacterial contamination (500 ppm Ucarcide 250, sonicated 25 mins.) was “+++ (heavy contamination(>10^5 cfu/ml))” and the bacterial contamination (500 ppm Ucarcide 250, sonicated 30 mins.) was “++ (moderate contamination(10^3-10^5 cfu/ml))”. The bacterial contamination (500 ppm Ucarcide 250, sonicated 35 mins.) was “++ (moderate contamination(10^3-10^5 cfu/ml))”, the bacterial contamination (500 ppm Ucarcide 250, sonicated 40 mins.) was “++ (moderate contamination(10^3-10^5 cfu/ml))” and the bacterial contamination (500 ppm Ucarcide 250, sonicated 45 mins.) was “++ (moderate contamination(10^3-10^5 cfu/ml))”. For the same molecule, the bacterial contamination (500 ppm Ucarcide 250, sonicated 50 mins.) was “++ (moderate contamination(10^3-10^5 cfu/ml))”, the bacterial contamination (500 ppm Ucarcide 250, sonicated 55 mins.) was “+ (light contamination (10^0 and 10^3 cfu/ml))” and the bacterial contamination (500 ppm Ucarcide 250, sonicated 60 mins.) was “+ (light contamination (10^0 and 10^3 cfu/ml))”. The bacterial contamination (750 ppm Ucarcide 250, 3 days after sonication) was “+++ (heavy contamination(>10^5 cfu/ml))”, the bacterial contamination (750 ppm Ucarcide 250, 7 days after sonication) was “+++ (heavy contamination(>10^5 cfu/ml))” and the bacterial contamination (750 ppm Ucarcide 250, 14 days after sonication) was “+++ (heavy contamination(>10^5 cfu/ml))”. For the same molecule, the bacterial contamination (750 ppm Ucarcide 250, 28 days after sonication) was “+++ (heavy contamination(>10^5 cfu/ml))”, the bacterial contamination (750 ppm Ucarcide 250, 90 days after sonication) was “+++ (heavy contamination(>10^5 cfu/ml))” and the bacterial contamination (750 ppm Ucarcide 250, sonicated 0 mins.) was “+++ (heavy contamination(>10^5 cfu/ml))”. The bacterial contamination (750 ppm Ucarcide 250, sonicated 5 mins.) was “+++ (heavy contamination(>10^5 cfu/ml))”, the bacterial contamination (750 ppm Ucarcide 250, sonicated 10 mins.) was “+++ (heavy contamination(>10^5 cfu/ml))” and the bacterial contamination (750 ppm Ucarcide 250, sonicated 15 mins.) was “+++ (heavy contamination(>10^5 cfu/ml))”. The bacterial contamination (750 ppm Ucarcide 250, sonicated 20 mins.) was “+++ (heavy contamination(>10^5 cfu/ml))”, the bacterial contamination (750 ppm Ucarcide 250, sonicated 25 mins.) was “+++ (heavy contamination(>10^5 cfu/ml))” and the bacterial contamination (750 ppm Ucarcide 250, sonicated 30 mins.) was “++ (moderate contamination(10^3-10^5 cfu/ml))”. The bacterial contamination (750 ppm Ucarcide 250, sonicated 35 mins.) was “++ (moderate contamination(10^3-10^5 cfu/ml))”, the bacterial contamination (750 ppm Ucarcide 250, sonicated 40 mins.) was “++ (moderate contamination(10^3-10^5 cfu/ml))” and the bacterial contamination (750 ppm Ucarcide 250, sonicated 45 mins.) was “++ (moderate contamination(10^3-10^5 cfu/ml))”. For the same molecule, the bacterial contamination (750 ppm Ucarcide 250, sonicated 50 mins.) was “+ (light contamination (10^0 and 10^3 cfu/ml))”, the bacterial contamination (750 ppm Ucarcide 250, sonicated 55 mins.) was “+ (light contamination (10^0 and 10^3 cfu/ml))” and the bacterial contamination (750 ppm Ucarcide 250, sonicated 60 mins.) was “+ (light contamination (10^0 and 10^3 cfu/ml))”. The bacterial contamination (1000 ppm Ucarcide 250, 3 days after sonication) was “+++ (heavy contamination(>10^5 cfu/ml))”, the bacterial contamination (1000 ppm Ucarcide 250, 7 days after sonication) was “+++ (heavy contamination(>10^5 cfu/ml))” and the bacterial contamination (1000 ppm Ucarcide 250, 14 days after sonication) was “+++ (heavy contamination(>10^5 cfu/ml))”. The bacterial contamination (1000 ppm Ucarcide 250, 28 days after sonication) was “+++ (heavy contamination(>10^5 cfu/ml))”, the bacterial contamination (1000 ppm Ucarcide 250, 90 days after sonication) was “+++ (heavy contamination(>10^5 cfu/ml))” and the bacterial contamination (1000 ppm Ucarcide 250, sonicated 0 mins.) was “+++ (heavy contamination(>10^5 cfu/ml))”. For the same molecule, the bacterial contamination (1000 ppm Ucarcide 250, sonicated 5 mins.) was “+++ (heavy contamination(>10^5 cfu/ml))”, the bacterial contamination (1000 ppm Ucarcide 250, sonicated 10 mins.) was “+++ (heavy contamination(>10^5 cfu/ml))” and the bacterial contamination (1000 ppm Ucarcide 250, sonicated 15 mins.) was “+++ (heavy contamination(>10^5 cfu/ml))”. For the same molecule, the bacterial contamination (1000 ppm Ucarcide 250, sonicated 20 mins.) was “++ (moderate contamination(10^3-10^5 cfu/ml))”, the bacterial contamination (1000 ppm Ucarcide 250, sonicated 25 mins.) was “++ (moderate contamination(10^3-10^5 cfu/ml))” and the bacterial contamination (1000 ppm Ucarcide 250, sonicated 30 mins.) was “+ (light contamination (10^0 and 10^3 cfu/ml))”. For the same molecule, the bacterial contamination (1000 ppm Ucarcide 250, sonicated 35 mins.) was “+ (light contamination (10^0 and 10^3 cfu/ml))”, the bacterial contamination (1000 ppm Ucarcide 250, sonicated 40 mins.) was “+ (light contamination (10^0 and 10^3 cfu/ml))” and the bacterial contamination (1000 ppm Ucarcide 250, sonicated 45 mins.) was “+ (light contamination (10^0 and 10^3 cfu/ml))”. The bacterial contamination (1000 ppm Ucarcide 250, sonicated 50 mins.) was “+ (light contamination (10^0 and 10^3 cfu/ml))”, the bacterial contamination (1000 ppm Ucarcide 250, sonicated 55 mins.) was “+ (light contamination (10^0 and 10^3 cfu/ml))” and the bacterial contamination (1000 ppm Ucarcide 250, sonicated 60 mins.) was “+ (light contamination (10^0 and 10^3 cfu/ml))”. For the same molecule, the bacterial contamination (1500 ppm Ucarcide 250, 3 days after sonication) was “+++ (heavy contamination(>10^5 cfu/ml))”, the bacterial contamination (1500 ppm Ucarcide 250, 7 days after sonication) was “+++ (heavy contamination(>10^5 cfu/ml))” and the bacterial contamination (1500 ppm Ucarcide 250, 14 days after sonication) was “+++ (heavy contamination(>10^5 cfu/ml))”. For the same molecule, the bacterial contamination (1500 ppm Ucarcide 250, 28 days after sonication) was “+++ (heavy contamination(>10^5 cfu/ml))”, the bacterial contamination (1500 ppm Ucarcide 250, 90 days after sonication) was “+++ (heavy contamination(>10^5 cfu/ml))” and the bacterial contamination (1500 ppm Ucarcide 250, sonicated 0 mins.) was “+++ (heavy contamination(>10^5 cfu/ml))”. The bacterial contamination (1500 ppm Ucarcide 250, sonicated 5 mins.) was “+++ (heavy contamination(>10^5 cfu/ml))”, the bacterial contamination (1500 ppm Ucarcide 250, sonicated 10 mins.) was “+++ (heavy contamination(>10^5 cfu/ml))” and the bacterial contamination (1500 ppm Ucarcide 250, sonicated 15 mins.) was “+++ (heavy contamination(>10^5 cfu/ml))”. For the same molecule, the bacterial contamination (1500 ppm Ucarcide 250, sonicated 20 mins.) was “++ (moderate contamination(10^3-10^5 cfu/ml))”, the bacterial contamination (1500 ppm Ucarcide 250, sonicated 25 mins.) was “+ (light contamination (10^0 and 10^3 cfu/ml))” and the bacterial contamination (1500 ppm Ucarcide 250, sonicated 30 mins.) was “+ (light contamination (10^0 and 10^3 cfu/ml))”. For the same molecule, the bacterial contamination (1500 ppm Ucarcide 250, sonicated 35 mins.) was “+ (light contamination (10^0 and 10^3 cfu/ml))”, the bacterial contamination (1500 ppm Ucarcide 250, sonicated 40 mins.) was “+ (light contamination (10^0 and 10^3 cfu/ml))” and the bacterial contamination (1500 ppm Ucarcide 250, sonicated 45 mins.) was “+ (light contamination (10^0 and 10^3 cfu/ml))”. The bacterial contamination (1500 ppm Ucarcide 250, sonicated 50 mins.) was “+ (light contamination (10^0 and 10^3 cfu/ml))”, the bacterial contamination (1500 ppm Ucarcide 250, sonicated 55 mins.) was “+ (light contamination (10^0 and 10^3 cfu/ml))” and the bacterial contamination (1500 ppm Ucarcide 250, sonicated 60 mins.) was “+ (light contamination (10^0 and 10^3 cfu/ml))”.
